The text below walks through data of ChEMBL document CHEMBL3994662, “In vivo instability of platensimycin and platencin: Synthesis and biological evaluation of urea- and carbamate-platensimycin” (Bioorg Med Chem, 2017).

Each structure is given as a SMILES string.

Data set [1] can be described thus: Elimination half life in C57Bl/6 mouse at 10 mg/kg, iv administered as single dose by LC-MS/MS analysis. Format: ADME, organism-based. Conditions: in vivo, read-out: beta t1/2 (converted); call rule not given here.
Data set [2] has as its system Mus musculus. The data set can be described thus: Elimination half life in C57Bl/6 mouse assessed as platensimycin level at 10 mg/kg, iv administered as single dose by LC-MS/MS analysis. In kind it is ADME, organism-based. The following applies: in vivo.
A short description of data set [3]: Cmax in C57Bl/6 mouse at 10 mg/kg, iv administered as single dose by LC-MS/MS analysis. In kind it is ADME, organism-based. Set-up: dose 10 mg/kg, route intravenous. Conditions: in vivo.
For data set [4], the system named is Mus musculus. Briefly: Cmax in C57Bl/6 mouse assessed as platensimycin level at 10 mg/kg, iv administered as single dose by LC-MS/MS analysis. In kind it is ADME, organism-based. Set-up: dose 10 mg/kg, route intravenous. The following applies: in vivo.
Data set [5] deals with Mus musculus. The data set can be described thus: AUC (0 to 8 hrs) in C57Bl/6 mouse at 10 mg/kg, iv administered as single dose by LC-MS/MS analysis. Format: ADME, organism-based. Set-up: dose 10 mg/kg, time < 8 hr, route intravenous. The following applies: in vivo.
Data set [6] concerns Mus musculus. The data set can be described thus: AUC (0 to 8 hrs) in C57Bl/6 mouse assessed as platensimycin level at 10 mg/kg, iv administered as single dose by LC-MS/MS analysis. Format: ADME, organism-based. Set-up: dose 10 mg/kg, time < 8 hr, route intravenous. The following applies: in vivo.
Data set [7] can be described thus: Observed clearance in C57Bl/6 mouse at 10 mg/kg, iv administered as single dose by LC-MS/MS analysis. In kind it is ADME, organism-based. Conditions: in vivo.
A short description of data set [8]: Volume of distribution in C57Bl/6 mouse at 10 mg/kg, iv administered as single dose by LC-MS/MS analysis. In kind it is ADME, organism-based. Conditions: in vivo.
In data set [9] the test system is Mus musculus. The data set can be described thus: Volume of distribution in C57Bl/6 mouse assessed as platensimycin level at 10 mg/kg, iv administered as single dose by LC-MS/MS analysis. In kind it is ADME, organism-based. The following applies: in vivo.
Data set [10] has as its system Plasma. Briefly: Drug uptake in C57Bl/6 mouse plasma at 10 mg/kg, iv administered as single dose measured after 60 mins by LC-MS/MS analysis. Conditions: in vivo, 1 h. In kind it is ADME, organism-based.
Data set [11] can be described thus: Ratio of drug level in C57Bl/6 mouse liver to plasma at 10 mg/kg, iv administered as single dose measured after 60 mins by LC-MS/MS analysis. In kind it is ADME, organism-based.
The nature of data set [12]: Ratio of drug level in C57Bl/6 mouse kidney to plasma at 10 mg/kg, iv administered as single dose measured after 60 mins by LC-MS/MS analysis. In kind it is ADME, organism-based.
Data set [13] is described as follows: Drug level in C57Bl/6 mouse urine at 10 mg/kg, iv administered as single dose measured after 60 mins by LC-MS/MS analysis. Format: ADME, organism-based.
Data set [14] relates to Plasma. Briefly: Drug metabolism in C57Bl/6 mouse plasma assessed as platensimycin formation at 10 mg/kg, iv administered as single dose measured after 60 mins by LC-MS/MS analysis. Format: ADME, organism-based. Conditions: in vivo, 1 h.
A short description of data set [15]: Drug level in C57Bl/6 mouse urine assessed as platensimycin level at 10 mg/kg, iv administered as single dose measured after 60 mins by LC-MS/MS analysis. In kind it is ADME, organism-based. The following applies: in vivo, 1 h.
For data set [16], the system named is Mus musculus. Briefly: Elimination half life in C57Bl/6 mouse assessed as platensimycin ML12 level at 10 mg/kg, iv administered as single dose by LC-MS/MS analysis. In kind it is ADME, organism-based. The following applies: in vivo.
For data set [17], the system named is Mus musculus. The data set can be described thus: Cmax in C57Bl/6 mouse assessed as platensimycin ML12 level at 10 mg/kg, iv administered as single dose by LC-MS/MS analysis. In kind it is ADME, organism-based. Set-up: dose 10 mg/kg, route intravenous. Conditions: in vivo.
The subject of data set [18] is Mus musculus. The data set can be described thus: AUC (0 to 8 hrs) in C57Bl/6 mouse assessed as platensimycin ML12 level at 10 mg/kg, iv administered as single dose by LC-MS/MS analysis. Conditions: in vivo. More on the design: dose 10 mg/kg, time < 8 hr, route intravenous. Format: ADME, organism-based.
In data set [19] the test system is Liver. The data set can be described thus: Drug uptake in C57Bl/6 mouse liver at 10 mg/kg, iv administered as single dose measured after 60 mins by LC-MS/MS analysis. The following applies: in vivo, 1 h. In kind it is ADME, organism-based.
Data set [20] relates to Kidney. Briefly: Drug uptake in C57Bl/6 mouse kidney at 10 mg/kg, iv administered as single dose measured after 60 mins by LC-MS/MS analysis. Format: ADME, organism-based. The following applies: in vivo, 1 h.
In another data set the test system is Staphylococcus aureus. Briefly: Antibacterial activity against Staphylococcus aureus ATCC 25923 after 18 hrs by broth dilution method. In kind it is functional. The following applies: ATCC 25923, 18 h.
The next data set relates to Micrococcus luteus. The data set can be described thus: Antibacterial activity against Micrococcus luteus ATCC 9431 after 18 hrs by broth dilution method. In kind it is functional. Conditions: ATCC 9431, 18 h.
Data set [21] relates to Plasma. Briefly: In vivo stability in C57Bl/6 mouse plasma assessed as compound hydrolysis at 10 mg/kg, iv administered as single dose measured after 60 mins by LC-MS/MS analysis. The following applies: 1 h. In kind it is ADME, organism-based.
The test system of data set [22] is Liver. Briefly: In vivo stability in C57Bl/6 mouse liver assessed as compound hydrolysis at 10 mg/kg, iv administered as single dose measured after 60 mins by LC-MS/MS analysis. Format: ADME, organism-based. Conditions: 1 h.
The subject of data set [23] is Kidney. The data set can be described thus: In vivo stability in C57Bl/6 mouse kidney assessed as compound hydrolysis at 10 mg/kg, iv administered as single dose measured after 60 mins by LC-MS/MS analysis. In kind it is ADME, organism-based. Conditions: 1 h.
The nature of data set [24]: In vivo stability in C57Bl/6 mouse urine assessed as compound hydrolysis at 10 mg/kg, iv administered as single dose measured after 60 mins by LC-MS/MS analysis. Format: ADME, organism-based. The following applies: 1 h.

For `C[C@]12C[C@@]34C=CC(=O)[C@@](C)(CCC(=O)Nc5c(O)ccc(C(=O)S[C@H]6CC(=O)[C@@](C)(CCC(=O)Nc7c(O)ccc(C(=O)O)c7O)[C@@H]7[C@@H]8C[C@@H]9C[C@]67C[C@]9(C)O8)c5O)[C@@H]3[C@H](C[C@@H]1C4)O2`, the half-life in data set [1] was 1.1 h. In addition, the “beta t1/2” value in the data set on Mus musculus [2] is 1.9 h. In addition, the Cmax was determined as 38 µM in data set [3] and 15 µM in the data set with Mus musculus [4]. Moreover, the AUC in the data set on Mus musculus [5] came out at 18 µM·h; with Mus musculus [6], 6.3 µM·h. In [7], this molecule had a clearance of 11 mL/min/kg. Besides, the Vd amounted to 0.33 L/kg in data set [8] and 2.5 L/kg in the data set with Mus musculus [9]. Besides, the Drug uptake entry is “Active” in the data set with Plasma [10] and < 1% in data set [15]. For the same molecule, the Kp at 1 h is 0.6 in data set [11] and 0.2 in [12]. The dose excreted at 1 h in [13] (C57Bl/6, mouse, urine, read-out: Drug uptake) was < 1%. In addition, the Drug metabolism entry in the data set on Plasma [14] was “Metabolite_Detected”.

In the case of `C[C@@]1(O)C[C@]23C[C@H]1CC[C@H]2[C@]1(C)CCC(=O)Nc2c(O)ccc(c2O)C(=O)S[C@H]2CC(=O)[C@@](C)(CCC(=O)Nc4c(O)ccc(c4O)C(=O)S[C@H]3CC1=O)[C@@H]1CC[C@@H]3C[C@]21C[C@@]3(C)O`, in data set [1], the half-life was 0.76 h. In the data set with Mus musculus [16], the “beta t1/2” value was 1.8 h. The Cmax in data set [3] stood at 150 µM; with Mus musculus [17], 2.3 µM. Further, the AUC in the data set on Mus musculus [5] was determined as 71 µM·h; in the data set on Mus musculus [18], 2.5 µM·h. The clearance in data set [7] was 3 mL/min/kg. For the same molecule, the Vd in data set [8] worked out at 0.08 L/kg.

Regarding `C[C@]12C[C@@]34C=CC(=O)[C@@](C)(CCNC(=O)Nc5c(O)ccc(C(=O)O)c5O)[C@@H]3[C@H](C[C@@H]1C4)O2`, the Drug uptake result is recorded as “Active” in the data set on Plasma [10]; “Active” in the data set on Liver [19]; “Active” in the data set with Kidney [20]; “Active” in [13] (mouse, in vivo, 1 h). In addition, the MIC against Staphylococcus aureus and in the data set with Micrococcus luteus was > 64 µg/mL each time. The Stability entry (in the data set on Plasma [21]; in the data set on Liver [22]; in the data set with Kidney [23]; in data set [24]) was “Stable” in each case.
